This note sets out measurements from ChEMBL document CHEMBL1201862, “PubChem BioAssay data set” (2004).

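Following 48 hours of exposure in 96-well plates, responses at five concentrations were used to interpolate endpoints linearly. At the GI50, growth is halved.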 Calls of active or inactive are those of the source. Rule as the data show it: active = GI50 up to about 1.1 µM and inactive = higher.

Among the test systems are Hs-578T; TK-10; SK-OV-3; SK-MEL-2; RXF 393; MDA-MB-231; OVCAR-4; U-251; NCI-H23; SF-268; HCT-15; OVCAR-3; OVCAR-8; K562; HL-60; NCI-H522; T47D; SNB-75; MDA-MB-435.
Common to all, as to assay: NCI anticancer screen, dose series, 48 h

On to `O=C1c2ccccc2S(=O)(=O)c2cc(-c3nn[nH]n3)ccc21` [DOXANTRAZOLE], for which the GI50 with Hs-578T, in the test with TK-10, in the test with SK-OV-3, with SK-MEL-2, with RXF 393 and in the test on MDA-MB-231 was > 100 µM (inactive) in each case. Moreover, the GI50 in the test with OVCAR-4 is > 100 µM (inactive); in the test with U-251, > 100 µM (inactive); in the test with NCI-H23, > 100 µM (inactive); in the test on SF-268 it was > 100 µM (inactive); in the test on HCT-15 it was more than 100 µM; in the test with OVCAR-3, > 100 µM (inactive). The GI50 in the test on OVCAR-8 was > 100 µM (inactive); with K562 it was > 100 µM (inactive); with HL-60, > 100 µM (inactive); in the test on NCI-H522, > 100 µM (inactive); with T47D, > 76.4 µM (inactive); with SNB-75 it was > 100 µM (inactive). Also, the GI50 in the test with MDA-MB-435 is > 100 µM (inactive).

As to `CN1CCC2(CC1)C(=O)N(N1CCCCCC1)C(=O)N2c1ccccc1`, the GI50 in the test with Hs-578T was 42.2 µM (inactive); in the test on TK-10, > 100 µM (inactive); in the test on SK-OV-3, > 100 µM (inactive); in the test with SK-MEL-2, > 100 µM (inactive); in the test with RXF 393 it was 31.3 µM (inactive); in the test on MDA-MB-231 it was > 100 µM (inactive). In addition, the GI50 is > 100 µM (inactive) with OVCAR-4; > 100 µM (inactive) in the test with U-251; > 100 µM (inactive) in the test with NCI-H23; > 100 µM (inactive) in the test on SF-268; more than 100 µM in the test with HCT-15; > 100 µM (inactive) in the test on OVCAR-3. In addition, the GI50 was 78 µM (inactive) in the test with OVCAR-8; > 100 µM (inactive) in the test with K562; > 100 µM (inactive) in the test with HL-60; 57.7 µM (inactive) with NCI-H522; > 100 µM (inactive) in the test on T47D; 31.9 µM (inactive) in the test with SNB-75. For the same compound, the GI50 in the test with MDA-MB-435 was > 100 µM (inactive).

For `O=S(=O)(O)SCCNCCCCCC1CCCCC1`, the GI50 was 14.5 µM (inactive) with Hs-578T; 9.38 µM (inactive) with TK-10; 15.7 µM (inactive) in the test with SK-OV-3; 2.87 µM (inactive) in the test with SK-MEL-2; 17.1 µM (inactive) in the test with RXF 393; 14.8 µM (inactive) in the test on MDA-MB-231. Further, the GI50 in the test with OVCAR-4 was 17.2 µM (inactive); in the test on U-251 it was 5.46 µM (inactive); in the test on NCI-H23, 10.4 µM (inactive); with SF-268, 3.05 µM (inactive); in the test on HCT-15, 8.77 µM; in the test on OVCAR-3, 5.87 µM (inactive). Besides, the GI50 is 10 µM (inactive) with OVCAR-8; 0.863 µM (active) in the test with K562; 7.29 µM (inactive) in the test on HL-60; 18.4 µM (inactive) in the test on NCI-H522; 13.6 µM (inactive) in the test on T47D; 3.56 µM (inactive) in the test with SNB-75. For the same compound, the GI50 in the test on MDA-MB-435 was 3.44 µM (inactive).

Consider `Cc1nc(O)nc2nc3ccc(Cl)cc3c(NC(C)(CO)CO)c12`, for which the GI50 in the test with Hs-578T was 46.9 µM (inactive); with TK-10, 41.4 µM (inactive); in the test with SK-OV-3 it was 36.9 µM (inactive); in the test with SK-MEL-2, > 100 µM (inactive); in the test on RXF 393, 20.1 µM (inactive); in the test with MDA-MB-231, 31.6 µM (inactive). For the same compound, the GI50 is > 57 µM (inactive) with OVCAR-4; 36.8 µM (inactive) in the test on U-251; 63.5 µM (inactive) with NCI-H23; 40.6 µM (inactive) with SF-268; 88.3 µM in the test on HCT-15; > 61.2 µM (inactive) with OVCAR-3. In addition, the GI50 with OVCAR-8 was 72.3 µM (inactive); in the test with K562 it was > 100 µM (inactive); in the test with HL-60, > 100 µM (inactive); in the test on NCI-H522, 24.2 µM (inactive); with T47D it was 17.6 µM (inactive); with SNB-75, 24.2 µM (inactive). For the same compound, in the test with MDA-MB-435, the GI50 was > 100 µM (inactive).

For the compound `CC(C)(C)C(=O)N1CCN(C=O)C1=S`, the GI50 in the test with Hs-578T was 58.5 µM (inactive); with TK-10 it was 92 µM (inactive); with SK-OV-3, > 100 µM (inactive); in the test on SK-MEL-2 it was > 100 µM (inactive); in the test with RXF 393 it was 24.6 µM (inactive); in the test with MDA-MB-231, > 100 µM (inactive). The GI50 with OVCAR-4 is > 100 µM (inactive); with U-251 it was 80.7 µM (inactive); in the test on NCI-H23, 77.3 µM (inactive); in the test with SF-268 it was 80.4 µM (inactive); in the test on HCT-15 it was 53.2 µM; in the test with OVCAR-3, 38.2 µM (inactive). In addition, the GI50 in the test with OVCAR-8 is 36.5 µM (inactive); in the test with K562, 35.2 µM (inactive); in the test on HL-60, 47.3 µM (inactive); in the test with NCI-H522, 26.8 µM (inactive); in the test on T47D it was 34 µM (inactive); with SNB-75, 30.1 µM (inactive). Besides, the GI50 with MDA-MB-435 is 35.9 µM (inactive).

Regarding `Clc1ccc(-c2nn3c(COc4ccc(OCc5nnc6sc(-c7ccc(Cl)cc7)nn56)c(Cl)c4)nnc3s2)cc1`, the GI50 in the test on Hs-578T is 30.3 µM (inactive); in the test on TK-10 it was 17.5 µM (inactive); with SK-OV-3, 27.3 µM (inactive); in the test with SK-MEL-2 it was 53.3 µM (inactive); with RXF 393, 15.8 µM (inactive); in the test on MDA-MB-231, 32.2 µM (inactive). Also, the GI50 was 25.5 µM (inactive) with OVCAR-4; 21.8 µM (inactive) in the test with U-251; 21.1 µM (inactive) with NCI-H23; 15.6 µM (inactive) in the test with SF-268; 28 µM in the test with HCT-15; 45.4 µM (inactive) in the test with OVCAR-3. The GI50 was 22 µM (inactive) in the test with OVCAR-8; 25.1 µM (inactive) in the test on K562; 17.7 µM (inactive) in the test on HL-60; 15.6 µM (inactive) with NCI-H522; 36.5 µM (inactive) with T47D; 12.7 µM (inactive) with SNB-75. In addition, the GI50 in the test on MDA-MB-435 is 33.7 µM (inactive).

In the case of `COC(=O)CCc1ccc(CCC(=O)OC)cc1`, the GI50 with Hs-578T, in the test with TK-10, in the test on SK-OV-3, in the test with SK-MEL-2, with RXF 393 and in the test on MDA-MB-231 was > 100 µM (inactive) each time. Also, the GI50 in the test with OVCAR-4 was > 100 µM (inactive); in the test with U-251 it was > 100 µM (inactive); in the test with NCI-H23, > 100 µM (inactive); in the test on SF-268, > 100 µM (inactive); in the test on HCT-15 it was more than 100 µM; in the test with OVCAR-3 it was > 100 µM (inactive). In addition, the GI50 in the test with OVCAR-8, in the test with K562, in the test on HL-60, in the test with NCI-H522, in the test with T47D and with SNB-75 was > 100 µM (inactive) throughout. The GI50 with MDA-MB-435 is > 100 µM (inactive).

Turning to `COc1cc(/C=C/C(=N\NC(N)=S)c2sc(NNC(C)=O)nc2C)ccc1O`, the GI50 in the test with Hs-578T, with TK-10, in the test on SK-OV-3, in the test with SK-MEL-2, in the test on RXF 393 and in the test with MDA-MB-231 was > 100 µM (inactive) each time. Also, the GI50 in the test on OVCAR-4 is > 100 µM (inactive); in the test on U-251 it was > 100 µM (inactive); with NCI-H23, > 100 µM (inactive); in the test with SF-268 it was > 100 µM (inactive); in the test on HCT-15, more than 100 µM; with OVCAR-3, > 100 µM (inactive). Moreover, the GI50 with OVCAR-8 is > 100 µM (inactive); with K562, > 100 µM (inactive); with HL-60 it was 29.6 µM (inactive); with NCI-H522, > 100 µM (inactive); with T47D, > 100 µM (inactive); in the test on SNB-75, > 100 µM (inactive). In the test on MDA-MB-435, the GI50 was > 100 µM (inactive).

As to `c1ccc(CN[C@]23C4C5CC6C7C5C2C7[C@@](NCc2ccccc2)(C64)N3Cc2ccccc2)cc1` (some centres undefined), the GI50 in the test with Hs-578T, in the test with TK-10, in the test on SK-OV-3, with SK-MEL-2, with RXF 393 and in the test on MDA-MB-231 was > 100 µM (inactive) throughout. In addition, the GI50 was > 100 µM (inactive) with OVCAR-4; > 100 µM (inactive) in the test with U-251; > 100 µM (inactive) in the test with NCI-H23; > 100 µM (inactive) in the test on SF-268; more than 100 µM in the test with HCT-15; > 100 µM (inactive) in the test with OVCAR-3. Moreover, the GI50 was > 100 µM (inactive) with OVCAR-8; > 100 µM (inactive) in the test with K562; > 100 µM (inactive) in the test with HL-60; 91.8 µM (inactive) in the test with NCI-H522; > 100 µM (inactive) in the test with T47D; > 100 µM (inactive) with SNB-75. Moreover, the GI50 with MDA-MB-435 was > 100 µM (inactive).

`CCOC(=O)C(NC(=O)c1ccccc1)(Nc1ccc(S(=O)(=O)Nc2cc(C)on2)cc1)C(F)(F)F` (centres undefined): the GI50 is > 100 µM (inactive) in the test on Hs-578T; 56.1 µM (inactive) in the test with TK-10; > 100 µM (inactive) in the test with SK-OV-3; > 100 µM (inactive) in the test with SK-MEL-2; > 100 µM (inactive) in the test on RXF 393; > 100 µM (inactive) with MDA-MB-231. The GI50 with OVCAR-4 was > 10 µM (inactive); in the test on U-251, > 100 µM (inactive); in the test on NCI-H23, > 10 µM (inactive); with SF-268, > 100 µM (inactive); in the test on HCT-15, more than 100 µM; in the test on OVCAR-3, > 100 µM (inactive). The GI50 in the test on OVCAR-8, in the test on K562, with HL-60, in the test on NCI-H522, in the test on T47D and in the test on SNB-75 was > 100 µM (inactive) each time. In the test on MDA-MB-435, the GI50 is > 100 µM (inactive).

With `O=C(O)CC(Cc1ccc2c(c1)OCO2)C(=O)O` (centres undefined), the GI50 in the test on Hs-578T, in the test with TK-10, with SK-OV-3, in the test with SK-MEL-2, in the test on RXF 393 and in the test on MDA-MB-231 was > 100 µM (inactive) throughout. For the same compound, the GI50 in the test on OVCAR-4 is > 100 µM (inactive); in the test on U-251, > 100 µM (inactive); with NCI-H23, > 100 µM (inactive); with SF-268, > 100 µM (inactive); with HCT-15, more than 100 µM; in the test on OVCAR-3, > 100 µM (inactive). For the same compound, the GI50 with OVCAR-8, in the test with K562, with HL-60, in the test on NCI-H522, with T47D and in the test with SNB-75 was > 100 µM (inactive) each time. The GI50 in the test on MDA-MB-435 was > 100 µM (inactive).
